{
  "source": "paper PMC12102262",
  "about": "(Nature Communications, 2025)",
  "key": {"GID4 and ALK": {"target": "GID4 and ALK (Homo sapiens, UniProt Q8IVV7+Q9UM73)", "sequence (Q9UM73 1094-1400 limits assumed)": "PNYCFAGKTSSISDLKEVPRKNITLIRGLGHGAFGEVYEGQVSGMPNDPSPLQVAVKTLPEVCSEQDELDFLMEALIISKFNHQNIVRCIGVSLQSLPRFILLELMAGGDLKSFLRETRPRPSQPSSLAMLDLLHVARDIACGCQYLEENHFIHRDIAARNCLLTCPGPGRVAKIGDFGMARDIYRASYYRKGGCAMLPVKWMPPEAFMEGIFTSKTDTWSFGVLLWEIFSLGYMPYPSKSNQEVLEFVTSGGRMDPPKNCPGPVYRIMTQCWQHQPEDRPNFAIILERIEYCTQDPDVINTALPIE", "sequence (Q8IVV7 whole entry)": "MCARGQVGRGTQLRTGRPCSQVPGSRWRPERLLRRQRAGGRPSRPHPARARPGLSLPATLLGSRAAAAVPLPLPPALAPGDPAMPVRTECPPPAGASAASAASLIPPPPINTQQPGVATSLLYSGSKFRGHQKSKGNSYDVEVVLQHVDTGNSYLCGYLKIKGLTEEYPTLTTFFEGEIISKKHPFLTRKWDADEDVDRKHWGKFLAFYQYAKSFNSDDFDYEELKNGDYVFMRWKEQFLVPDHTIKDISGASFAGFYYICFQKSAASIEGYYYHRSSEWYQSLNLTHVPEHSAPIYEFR", "assay": "NanoBRET cellular ternary complex formation assay, HEK293T cells", "assay_type": "cell-based", "settings": "6 h, increasing concentrations"}, "BaF3-EML4-ALK cells": {"test_system": "BaF3-EML4-ALK cells", "assay": "CCK8 cell viability time course, BaF3-EML4-ALK cells", "assay_type": "cell-based", "settings": "1 μM"}, "EML4-ALK [1]": {"target": "T1, EML4-ALK (Homo sapiens, UniProt Q9HC35+Q9UM73)", "assay": "EML4-ALK degradation in BaF3-EML4-ALK cells by immunoblotting", "assay_type": "cell-based", "settings": "1 μM, same time points"}, "EML4-ALK [2]": {"target": "T1, EML4-ALK", "assay": "EML4-ALK protein levels in H3122 xenograft tumors, I.P. dosing, immunoblotting", "assay_type": "in vivo, nude mice", "settings": "10 mg/kg I.P. every other day, 8 doses"}},
  "data": [
    {"smiles": "COc1cc(N2CCC(N3CCN(C)CC3)CC2)ccc1Nc1ncc(Cl)c(Nc2ccccc2P(C)(C)=O)n1", "note": "[Brigatinib]", "values": [
      {"measurement": "BRET signal between GID4 and ALK", "setting": "GID4 and ALK", "result": "did not induce any BRET signal"},
      {"measurement": "time post-treatment at which cell proliferation is inhibited", "setting": "BaF3-EML4-ALK cells", "result": 0.5, "unit": "h"},
      {"measurement": "effect on levels of EML4-ALK", "setting": "EML4-ALK [1]", "result": "had no effect"},
      {"measurement": "effect on EML4-ALK protein levels in tumors", "setting": "EML4-ALK [2]", "result": "failed to reduce"}
    ]}
  ]
}
